Measurements published in patent US20250222116A1, “PARP-1 DEGRADATION AGENT AND USE THEREOF” (XIZANG HAISCO PHARMACEUTICAL CO., LTD., priority 2021, published 2025).

Assays:
PARP1 [1] = molecular target: T1, PARP1 (Homo sapiens (Human), UniProt P09874); assay: PARP1 protein expression level in MDA-MB-436 cells; type: cell-based; settings: 100 nM, 24 hours
Description: (§1) MDA-MB-436 cells were placed in a complete DMEM medium (supplemented with 15% FBS; 10 μg/mL Insulin; 16 μg/mL Glutathione and 1% penicillin-streptomycin solution), and cultured at 37° C. under CO2-free conditions. The cells in the logarithmic growth phase were collected, the cell density was adjusted to 2×10^5 cells/well with the culture medium, and the cells were added to a 6-well cell culture plate at a volume of 1 mL/well. The compound to be tested was prepared to 2-fold the final concentration, 1 mL of the compounds at different concentrations were added to administration wells, a medium containing 0.2% DMSO was added to control wells, and the plate was incubated for 24 hours at 37° C. The cells were collected into a 1.5 mL centrifuge tube, 25 μL of RIPA lysis buffer (containing 1× protease inhibitor cocktail) was added, and the cells were lysed on ice for 15 minutes and centrifuged at 12000 rpm/min at 4° C. for 10 minutes. The supernatant was collected and the protein content was determined using the BCA method. The protein sample to be tested was diluted to 0.8 mg/mL, PARP1 was detected using a fully automated protein expression quantitative analyzer (ProteinSimple), and the internal reference protein was 3-actin (both antibodies were from CST). The software (Compass for SW) of the fully automated protein expression quantitative analyzer was used to process the raw data and calculate the peak area and the PARP1 expression rate relative to the control group.
as §1, with “L-15” for “DMEM”, “mL/well and cultured overnight. On day 2, the” for “mL/well. The”, “group. DC50 values were calculated using a four-parameter non-linear fitting model in Graphpad 8.3.0 software.” for “group.”

[2] = test system: breast tumor cells MDA-MB-436; assay: MDA-MB-436 cell activity test (CellTiter-Glo, 7 days); type: cell-based, human; settings: Homo sapiens; for IC50: MDA-MB-436, 168 h, MDA-MB-436 cells, 7 days incubation, read-out: IC50 (nM), MDA-MB-436 cell inhibitory activity; for inhibition at 10 µM: MDA-MB-436, MDA-MB-436 cells, read-out: Max inh. % 10 μM
Description: Breast tumor cells MDA-MB-436 were purchased from ATCC, the culture medium was Leibovitz's L-15+10% FBS, and the cells were cultured in a CO2-free incubator at 37° C. On day 1, the cells in the exponential growth phase were collected, and the cell suspension was adjusted to 4000 cells/135 μL with the culture medium. 135 μL of the cell suspension was added to each well of a 96-well cell culture plate and incubated overnight. On day 2, compounds at different concentrations were added, and the plate was placed in the incubator and incubated for 7 days. After the culture was completed, according to operation instructions for a CellTiter-Glo kit (Promega, G7573), 75 μL of CTG solution, which was already pre-melted and equilibrated to room temperature, was added to each well, and the mixture was uniformly mixed for 2 minutes using a microplate shaker. The plate was placed at room temperature for 10 minutes, and then […] signal values were determined using an Envision2104 plate reader (PerkinElmer). The inhibition rate was calculated using formula (1), where RLUcompound was the readout of the drug treated group, RLUcontrol was the average value of the solvent control group, and RLUblank was the average value of the cell-free well. The IC50 value was calculated using GraphPad Prism software.

PARP1 [3] = molecular target: T1, PARP1; assay: PARP1 protein expression level in MDA-MB-231 cells; type: cell-based; settings: 24 hours
Description: The cells were collected into a 1.5 mL centrifuge tube, 25 μL of RIPA lysis buffer (containing 1× protease inhibitor cocktail) was added, and the cells were lysed on ice for 15 minutes and centrifuged at 12000 rpm/min at 4° C. for 10 minutes. The supernatant was collected and the protein content was determined using the BCA method. […] DC50 values were calculated using a four-parameter non-linear fitting model in Graphpad 8.3.0 software.

[4] = Pharmacokinetic test in mice; type: in vivo, ICR mice
Description: 8.1 Experimental animals: male ICR mice, 20 to 25 g, 18 mice/compound, purchased from Chengdu Ddossy Experimental Animals Co., Ltd.
8.2 Experimental design: on the day of the experiment, 36 ICR mice were randomly grouped according to their body weights. The animals were fasted with water available for 12 to 14 h one day before the administration, and were fed 4 h after the administration.
(§2) Before and after the administration, 0.06 mL of blood was taken from the orbit of the animals under isoflurane anesthesia and placed in an EDTAK2 centrifuge tube. The blood was centrifuged at 5000 rpm and 4° C. for 10 min to collect plasma. The blood collection time points for the intravenous group and intragastric administration group were: 0 min, 5 min, 15 min, 30 min, 1 h, 2 h, 4 h, 6 h, 8 h, and 24 h. Before analysis and detection, all samples were stored at −80° C. The samples were analyzed quantitatively by LC-MS/MS.

[5] = Pharmacokinetic test in rats; type: in vivo, SD rats
Description: 7.1 Experimental animals: male SD rats, about 220 g, 6-8 weeks old, 6 rats/compound, purchased from Chengdu Ddossy Experimental Animals Co., Ltd.
7.2 Experimental design: on the day of the experiment, 12 SD rats were randomly grouped according to their body weights. The animals were fasted with water available for 12 to 14 h one day before the administration, and were fed 4 h after the administration.
as §2, with “administration, 0.15” for “administration, 0.06”, “intravenous administration” for “intravenous”, “were: 0,” for “were: 0 min,”

[6] = male, ICR, mouse, iv, i.v. 2.5 mg/kg, plasma
[7] = male, SD, rat, iv, i.v. 2.5 mg/kg, plasma

T1 sequence (P09874 whole entry): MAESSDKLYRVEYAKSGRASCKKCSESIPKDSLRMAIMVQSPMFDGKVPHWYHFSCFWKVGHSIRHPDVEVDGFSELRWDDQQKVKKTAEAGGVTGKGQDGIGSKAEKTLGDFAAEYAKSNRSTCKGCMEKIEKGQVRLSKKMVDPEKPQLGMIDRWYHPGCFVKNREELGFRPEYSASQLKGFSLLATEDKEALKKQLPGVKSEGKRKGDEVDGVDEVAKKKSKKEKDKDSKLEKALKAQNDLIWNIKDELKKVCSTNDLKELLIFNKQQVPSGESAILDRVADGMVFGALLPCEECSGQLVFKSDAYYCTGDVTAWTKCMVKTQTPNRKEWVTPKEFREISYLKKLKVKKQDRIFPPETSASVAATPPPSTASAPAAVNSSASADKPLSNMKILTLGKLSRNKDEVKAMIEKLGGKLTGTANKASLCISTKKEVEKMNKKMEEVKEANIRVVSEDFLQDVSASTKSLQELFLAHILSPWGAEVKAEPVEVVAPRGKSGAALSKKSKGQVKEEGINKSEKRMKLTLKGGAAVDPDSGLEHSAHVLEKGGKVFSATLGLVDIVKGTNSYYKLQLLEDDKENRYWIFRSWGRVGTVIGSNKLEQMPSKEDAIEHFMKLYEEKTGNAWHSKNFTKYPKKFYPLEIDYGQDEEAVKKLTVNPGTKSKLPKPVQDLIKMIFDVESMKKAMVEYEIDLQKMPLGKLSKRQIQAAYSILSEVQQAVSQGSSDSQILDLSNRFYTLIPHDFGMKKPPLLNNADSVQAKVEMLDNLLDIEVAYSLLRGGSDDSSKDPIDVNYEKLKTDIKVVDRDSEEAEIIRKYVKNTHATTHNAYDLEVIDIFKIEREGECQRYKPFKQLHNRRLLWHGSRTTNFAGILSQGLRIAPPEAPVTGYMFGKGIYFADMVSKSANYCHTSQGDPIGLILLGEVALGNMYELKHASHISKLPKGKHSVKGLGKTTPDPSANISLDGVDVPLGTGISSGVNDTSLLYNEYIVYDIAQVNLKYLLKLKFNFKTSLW

SMILES | PARP1 degradation rate @ 100 nM (PARP1 [1]) | IC50 [2] | inhibition at 10 µM [2] | other results
CCc1cc2ncc(CN3CCN(c4ccc(C(=O)NC5CCN(C6CN(c7cc8c(cc7F)C(=O)N(C7CCC(=O)NC7=O)C8=O)C6)CC5)nc4)CC3)cc2[nH]c1=O (stereo not shown) [Compound 26, N-(1-(1-(2-(2,6-dioxopiperidin-3-yl)-6-fluoro-1,3-dioxoisoindolin-5-yl)azetidin-3-yl)piperidin-4-yl)-5-(4-((7-ethyl-6-oxo-5,6-dihydro-1,5-naphthyridin-3-yl)methyl)piperazin-1-yl)picolinamide] | 83.5% | 53 nM | 81.7% | 
CCc1cc2ncc(CN3CCN(c4ccc(C(=O)NC5CC6(C5)CN(c5ccc7c(c5)C(=O)N(C5CCC(=O)NC5=O)C7=O)C6)nc4)CC3)cc2[nH]c1=O (stereo not shown) [Compound 24, N-(2-(2-(2,6-dioxopiperidin-3-yl)-1,3-dioxoisoindolin-5-yl)-2-azaspiro[3.3]heptan-6-yl)-5-(4-((7-ethyl-6-oxo-5,6-dihydro-1,5-naphthyridin-3-yl)methyl)piperazin-1-yl)picolinamide] | 76.2% | 38 nM | 98.9% | 
CCc1cc2ncc(CN3CCN(c4ccc(C(=O)NC5CCC(Oc6ccc7c(c6)C(=O)N(C6CCC(=O)NC6=O)C7=O)CC5)nc4)CC3)cc2[nH]c1=O (stereo not shown) [Compound 66, N-((1r,4r)-4-((2-(2,6-dioxopiperidin-3-yl)-1,3-dioxoisoindolin-5-yl)oxy)cyclohexyl)-5-(4-((7-ethyl-6-oxo-5,6-dihydro-1,5-naphthyridin-3-yl)methyl)piperazin-1-yl)picolinamide] | 76.4% | 97.8 nM | 93.2% | 
CCc1cc2ncc(CN3CCN(c4ccc(C(=O)NC5CN(C6CCN(c7ccc8c(c7)C(=O)N(C7CCC(=O)NC7=O)C8=O)CC6)C5)nc4)CC3)cc2[nH]c1=O (stereo not shown) [Compound 5, N-(1-(1-(2-(2,6-dioxopiperidin-3-yl)-1,3-dioxoisoindolin-5-yl)piperidin-4-yl)azetidin-3-yl)-5-(4-((7-ethyl-6-oxo-5,6-dihydro-1,5-naphthyridin-3-yl)methyl)piperazin-1-yl)picolinamide] |  |  |  | DC50 (PARP1 [3]): 0.12 nM
CCc1cc2ncc(CN3CC=C(c4ccc(C(=O)Nc5cnn(C6CCN(c7ccc8c(c7)C(=O)N(C7CCC(=O)NC7=O)C8=O)CC6)c5)nc4)CC3)cc2[nH]c1=O (stereo not shown) [Compound 58, N-(1-(1-(2-(2,6-dioxopiperidin-3-yl)-1,3-dioxoisoindolin-5-yl)piperidin-4-yl)-1H-pyrazol-4-yl)-1′-((7-ethyl-6-oxo-5,6-dihydro-1,5-naphthyridin-3-yl)methyl)-1′,2′,3′,6′-tetrahydro-[3,4′-bipyridine]-6-carboxamide] | 79.6% | 6 nM | 87.2% | pharmacokinetic characteristics [4]: good pharmacokinetic characteristics; F ([4]; i.g. 10 mg/kg): 15.6%; AUC(0-t) [4, 6]: 224000 ng·h/mL; clearance [4, 6]: 0.0968 mL/min/kg; Vd ([4]; male, ICR, mouse, iv, i.v. 2.5 mg/kg, plasma, read-out: Vdss): 0.189 L/kg; AUC(0-t) ([4]; male, ICR, mouse, po, i.g. 10 mg/kg, plasma): 140000 ng·h/mL; pharmacokinetic characteristics [5]: good pharmacokinetic characteristics; F ([5]; i.g. 10 mg/kg): 6.2%; AUC(0-t) [5, 7]: 51400 ng·h/mL; clearance [5, 7]: 0.713 mL/min/kg; Vd ([5]; male, SD, rat, iv, i.v. 2.5 mg/kg, plasma, read-out: Vdss): 0.366 L/kg; AUC(0-t) ([5]; male, SD, rat, po, i.g. 10 mg/kg, plasma): 12800 ng·h/mL
CCc1cc2ncc(CN3CCN(c4ccc(C(=O)Nc5cnn(C6CCN(c7ccc8c(c7)C(=O)N(C7CCC(=O)NC7=O)C8=O)CC6)c5)nc4)CC3)cc2[nH]c1=O (stereo not shown) [Compound 57, N-(1-(1-(2-(2,6-dioxopiperidin-3-yl)-1,3-dioxoisoindolin-5-yl)piperidin-4-yl)-1H-pyrazol-4-yl)-5-(4-((7-ethyl-6-oxo-5,6-dihydro-1,5-naphthyridin-3-yl)methyl)piperazin-1-yl)picolinamide] | 80.6% | 15.8 nM | 84% | 
